Results from patent US20100261700A1, “BETA-LACTAMASE INHIBITORS” (priority 2009, published 2010).

Legend:
[1] = target: T1, beta-lactamase from Enterobacter cloacae (Enterobacter cloacae, UniProt P05364); experiment: Assay (I) for beta-lactamase activity, Cefesone hydrolysis (product inhibition); type: biochemical; conditions: reaction continued for two hours; theoretical maximal absorbance approximately 1.6; said to be consistent with product inhibition
T1 construct: purchased Sigma-Aldrich
Protocol: A chromogenic cephalosporin, Cefesone, is synthesized and isolated, for example, as described by Sutton et al. International Application WO 2009/049086 and used to monitor p-lactamase activity. A typical assay monitors the hydrolysis of Cefesone via the formation of a species which absorbs at 486 nm (molar absorptivity constant 16,000). Absorption is monitored as a function of time in 0.1 M, pH 7.0 sodium phosphate, 0.2 mM Cefesone and 4 volume percent DMSO cosolvent at 30° C. using a Beckman DU-40 spectrophotometer having a circulating water bath attached to the cuvette holder. The assay is initiated by addition and mixing of an appropriate amount of beta-lactamase.
The beta-lactamase assay using enzyme fro Enterobacter cloacae (Sigma-Aldrich, St. Louis, Mo.) was carried out as in Example 2 (assay I) above with compound 2. After the initial rate was determined the reaction was allowed to continue for two hours. Theoretical maximal absorbance at 486 nm is approximately 1.6 while the observed final absorbance was consistently 0.26.

[2] = target: T1, beta-lactamase from Enterobacter cloacae; experiment: Time dependent inhibition of beta-lactamase, with dialysis to test for return of activity; type: biochemical; conditions: 10 mL 0.1 units/mL beta-lactamase with 500 microM inhibitor, dialysed against 1 L 0.1 M sodium phosphate buffer (pH 7.0), one exchange

T1 sequence (P05364 21-381): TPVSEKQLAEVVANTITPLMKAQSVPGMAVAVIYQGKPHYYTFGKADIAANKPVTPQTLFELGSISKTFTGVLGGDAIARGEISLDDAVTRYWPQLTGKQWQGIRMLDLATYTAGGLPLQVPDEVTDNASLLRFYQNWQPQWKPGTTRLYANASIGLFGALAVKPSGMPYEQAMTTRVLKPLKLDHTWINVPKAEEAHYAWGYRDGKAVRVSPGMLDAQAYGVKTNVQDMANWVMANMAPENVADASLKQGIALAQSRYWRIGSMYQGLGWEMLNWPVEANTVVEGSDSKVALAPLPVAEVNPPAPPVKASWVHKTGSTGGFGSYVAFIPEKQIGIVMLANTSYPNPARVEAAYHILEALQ

| SMILES | observed final absorbance at 486 nm [1] | return of beta-lactamase activity after dialysis [2] |
| --- | --- | --- |
| O=C(Cc1ccccc1)NC1C(=O)N2C(C(=O)O)=C(/C=C/C3CC3)CSC12 (stereo not drawn) [compound 2, 3-vinylcyclopropane-7-(2-phenylacetamido)-3-Cephem-4-carboxylic acid] | 0.26 | no return of activity |
| O=C(Cc1ccccc1)NC1C(=O)N2C(C(=O)O)=C(/C=C/c3ccc(CBr)cc3)CSC12 (stereo not drawn) [compound 4, 3-(1-bromomethyl-4-vinylbenzene)-7-(2-phenylacetamido)-3-Cephem-4-carboxylic acid] |  | no return of activity |
